From patent publication US4581359A, “Pharmacological treatments with N-7-substituted derivatives of theophylline” (priority 1984, dated 1986)
Where “and” joins values, the source holds several entries; their conditions need not be identical. Identical values can stand only once. Like-named read-outs stand apart in the source and are kept apart here.

Columns and labels:
[1] = cited from earlier work
[2] = Dyphylline intravenous infusion in rabbits: blood concentration, pharmacokinetics, toxicity (Example 1); assay type: in vivo, female New Zealand White rabbits
Description: A high-pressure liquid chromatographic (HPLC) system consisted of a delivery pump (M-6000A, Waters Associates, Milford, Mass.), sample injection apparatus (Model U6K, Waters Associates, Milford, Mass.), 30-cm reverse phase column (μBondapak C18, Waters Associates, Milford, Mass.), UV detector (Model 440, Waters Associates, Milford, Mass.) with wavelength of 280 nm and a dual pen recorder (Soltec Co., Encino, Calif.) which were used at ambient temperature.
Both dyphylline and theophylline stock standard solutions were prepared to contain 10, 40, 80, 120, 150, 320 or 640 mg of each in 50 ml of distilled water. 20 μl of each was then added into 0.38 ml of rabbit blood to prepare working blood standard solutions.
The internal standard used was β-hydroxypropyl theophylline (Aldrich Chemical Co., Inc., Milwaukee, Wis.) in acetonitrile which was prepared in a 500 ml volumetric flask as a stock solution, and kept tightly sealed except during use throughout the experiment. Internal standard solution (0.4 ml) was added to an equal volume (0.4 ml) of sample to precipitate protein. After centrifuging for 10 minutes, the supernatant was injected into the HPLC. The HPLC operating conditions included a mobile phase composed of acetonitrile (6 percent V/V) in distilled water and a flow rate of 2.0 ml/min.
Typical log blood dyphylline concentration versus time plots, for each of the three rabbits following zero-order infusion of 250 mg over fifteen minutes are presented in FIG. 1. […] (1975). Parameters obtained from linear least square fitting of the terminal data to a one-compartment model appear in Table I. The fitted line of the data can be seen in FIG. 1.

[3] = Concomitant dyphylline and aminophylline in two horses: plasma concentration, blood pressure, pulse (Example 3); settings: horse, plasma, iv, 20 mg/kg, dyphylline peak plasma concentration, 20 mg/kg bolus
Protocol: Two horses were administered dyphylline and aminophylline concomitantly.
The second horse was given a bolus injection of dyphylline (20 mg/kg as 100 mg/ml solution in D5W) over 15 seconds into the jugular vein. Aminophylline infusion (10 mg/kg dissolved in one liter of D5W) was started immediately and administered over 20 minutes.

[4] = cited from earlier work; remark: listed apart in the source
[5] = cited from earlier work; remark: listed apart in the source
[6] = Single and combined intravenous methyl xanthines in rabbits: heart rate, deaths, plasma concentrations (Example 6); assay type: in vivo, female rabbits; settings: one rabbit each; normal about 220 bpm
Protocol: T 40 mg/kg of aminophylline infused at the rate of 0.21 ml/min over 30
T/D 40 mg/kg of aminophylline infused at the rate of 0.21 ml/min over 30
T/E 40 mg/kg of aminophylline infused at the rate of 0.21 ml/min over 30
T/P 40 mg/kg of aminophylline infused at the rate of 0.21 ml/min over 30

[7] = Literature: pharmacokinetics of dyphylline and related derivatives in humans; settings: human, in vivo; for Vd/F: po, analysis of Gisclon oral data
[8] = as above; settings: human, in vivo, from Simons et al., read-out: Total Vd
Description: Simons, et al., Allergy and Clin. Immunol. (1975) report the pharmacokinetics of dyphylline from seven different doses in seven patients and treat dyphylline as a one-compartment drug which means that Vc would be equal to Vd total since only one compartment is involved. This is, however, inconsistent with the data reported in the above-mentioned articles by Lawyer et al. Also, the data of Simons et al. (1975) can be used to generate the following lists wherein the estimated total volume of distribution of dyphylline (total Vd) is calculated from data presented by using the equation Vd=Dose/(Kel)(AUC): […]

in vivo = settings: rabbit
Protocol: All experiments of this example were performed using female New Zealand White rabbits. These rabbits (2.4-3.6 kg) were housed in a controlled environment and allowed free access to water and food.
Before dosing with drug the rabbit ear hair was clipped and treated with hair remover lotion (sold under the trademark NAIR, Carter-Wallace, Inc., New York, N.Y.), a catheter (Quick-Cath, 20 Ga, Travenol Laboratories, Inc., Deerfield, Ill.) and sterile intermittent infusion plug were then inserted in the rabbit's ear vein for infusion. […] For each separate administration of theophylline, a suitable amount of aminophylline (40 mg/kg) was dissolved in distilled water to make 10 ml injectable solution which was administered into a rabbit's ear vein as a continuous infusion over a period of 15 minutes.
Blood samples were collected from an ear vein (in the opposite ear from the infusion) at predetermined time intervals. Before collecting each sample, the rabbit ear was treated topically with xylene to dilate the ear vein for convenient sample collection. Immediately after each blood sample was drawn, 0.4 ml of blood was transfered to the centrifuge tube and 0.4 ml of acetronitrile with appropriate internal standard was added to precipitate the protein and extract drug components. After vortexing well, the blood acetonitrile mixture was centrifuged at 3000×G for ten minutes, and 10 μl of supernatent solution was then injected into the HPLC.
The post infusion data of theophylline were fitted to a two-compartment open model using the same procedure as described above. Although samples were collected while infusion of dyphylline was continuing, only post infusion data were used for dyphylline pharmacokinetic analysis.

[9] = cited from earlier work; remark: listed apart in the source
[10] = cited from earlier work; remark: listed apart in the source
[11] = rabbit, blood, iv, 250 mg, 250.0 mg/rabbit over 15 minutes, alone, rabbits 1-3, mean
[12] = intravenous, per day per 70 kg person, Zuidema

Cn1c(=O)c2c(ncn2CC(O)CO)n(C)c1=O (stereo not drawn) [dyphylline, dihydroxypropyl theophylline]
time post dosing to achieve plasma concentrations ([1]; Joos et al.): 90 min
plasma concentration of dyphylline ([1]; combined with theophylline and proxyphylline (Bracher; Werdermann)): less than 3.0 mcg/ml
plasma concentration, each drug ([1]; dyphylline and proxyphylline (Joos et al.), 90 min): about 13 mcg/ml
Ccut, blood concentration at the time the infusion was stopped ([2]; 250.0 mg/rabbit zero-order infusion over 15 minutes, alone, rabbits 1-3, mean, 15 min): 81.82 µg/mL and 112.5 µg/mL and 91.70 µg/mL
signs of toxicity ([2]; blood concentrations about 80 to 112 mcg/ml): did not exhibit any signs of toxicity
half-life [2, 11]: 35.6 min
k el [2, 11]: 0.000325 s⁻¹
Vd ([2]; rabbit, blood, iv, 250 mg, 250.0 mg/rabbit over 15 minutes, alone, rabbits 1-3, mean, read-out: Vd1): 0.895 L/kg
concentration at 0.25 h ([2]; rabbit, blood, iv, 250 mg, 250.0 mg/rabbit zero-order infusion over 15 minutes, alone, rabbits 1-3, mean, read-out: Ccut, blood concentration at the time the infusion was stopped): 80.8 µg/mL
concentration at 0.25 h ([2]; rabbit, blood, iv, 250 mg, 15 minutes, three rabbits, read-out: blood concentration when the infusion was stopped): 80 to 112 µg/mL
Vd ([2]; rabbit, blood, iv, 250 mg, Table I, read-out: average apparent volume of distribution of dyphylline administered alone): 0.82 L/kg
Cmax ([3]; first value, presumably first horse): 46 µg/mL
Cmax ([3]; second value, presumably second horse): 88 µg/mL
water solubility [4]: high water solubility
lowest therapeutic response toxic level in steady state ([5]; blood, calculated by Zuidema from data of Svedmyr): 90 µg/mL
calculated probable dosage to produce 40 mcg/ml in blood [5, 12]: 13.7 gm
calculated probable dosage to produce 90 mcg/ml in blood [5, 12]: 30.8 gm
heart rate, individual drug treatment [6]: 76 bpm
Vd ([7]; from Simons et al., read-out: Vd, range over dosage forms): 0.58 to 0.98 L/kg
Vd/F ([7]; 77.0 kg, complete bioavailability, read-out: central compartment volume): ~52 L
Vd/F ([7]; 77.0 kg, complete bioavailability, read-out: total volume of distribution): ~67 L
Vd/F ([7]; 84 percent bioavailability, read-out: Vc): ~0.6 L/kg
Vd/F ([7]; 84 percent bioavailability, read-out: Vd): ~0.73 L/kg
Vd/F ([7]; bioavailability 84 percent, read-out: central compartment volume): ~44 L
Vd/F ([7]; bioavailability 84 percent, read-out: total volume of distribution): ~56 L
Vd/F ([7]; total bioavailability, read-out: Vc): ~0.68 L/kg
Vd/F ([7]; total bioavailability, read-out: Vd total): ~0.87 L/kg
Vd ([8]; 10 mg/kg, 10 mg/kg alcoholic solution with glycerol-guaiacolate solution): 0.77 L/kg
Vd ([8]; 10 mg/kg, 10 mg/kg alcoholic solution): 0.98 L/kg
Vd ([8]; 10 mg/kg, 10 mg/kg aqueous): 0.93 L/kg
Vd/F ([8]; im, 5 mg/kg, 5 mg/kg intramuscular): 0.58 L/kg
Vd/F ([8]; im, 10 mg/kg, 10 mg/kg intramuscular): 0.8 L/kg
Vd/F ([8]; po, 5 mg/kg, 5 mg/kg tablet): 0.58 L/kg
Vd/F ([8]; po, 10 mg/kg, 10 mg/kg tablet): 0.72 L/kg
effect of dyphylline on half-life of theophylline (in vivo): does not appear to alter the half-life of theophylline
plasma concentration of dyphylline not toxic in the presence of about 100 mcg/ml theophylline (in vivo): about 600 mcg/ml
Vd (in vivo; iv, 666.7 mg/kg, average apparent volume of distribution of dyphylline administered with theophylline): 0.41 L/kg
adverse effect ([9]; 400 mg intravenous, about 48 mcg/ml, Zuidema 1981): no adverse effect
plasma concentration ([9]; 400 mg intravenous, very short time, Zuidema 1981): about 48 mcg/ml
protein binding ([9]; Gisclon et al.): may bind nonlinearly to protein
intravenous dyphylline accounted for in the urine ([9]; Lawyer): forty-four
peak plasma concentration ([9]; intravenous over ten minutes, one patient, Lawyer): 17.4 µg/mL
conversion to theophylline in the body ([9]; literature): not converted to theophylline in the body
tissue distribution ([9]; literature): penetrate the central nervous system, to infiltrate heart tissue and to distribute to lung tissue
initial distribution volume ([9]; person, 73 kg, Lawyer): 26.2 L
total or steady state volume of distribution ([9]; person, 73 kg, Lawyer): 32.1 L
pharmacokinetics at high dose ([10]; Poynor): may produce nonlinear pharmacokinetics
concentration not toxic in dogs ([10]; dogs): 100 µg/mL
